Experiments:
Conditions in all cases: 48 h
NOMO1 [1] = experiment: cell viability relative to DMSO control; higher = less cytotoxic
Procedure, shortened: (§1)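 Viability values are per-plate percentages of DMSO wells, with background from cell-free wells. Library compounds in DMSO were pin-dosed, in an 11-point threefold series from 47 μM to 0.79 nM, onto NOMO1 or SEM (500 cells/well) or P12-Ichikawa (1000 cells/well) leukemia cells in 1536-well plates (5 μl). Those cells had been adapted for at least four passages in each medium, and CellTiter-Glo One luminescence was read after 48 h at 37°C.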

P12-Ichikawa [2] = experiment: as above
Procedure, shortened: as §1

SEM cells [3] = experiment: as above
Procedure, shortened: as §1

NOMO1 [4] = experiment: AUC of viability dose-response curve (% viability x log10 dose units); higher = less sensitive
Procedure, shortened: (§2)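 Library compounds in DMSO were applied for 48 h at 37°C at 11 threefold doses (47 μM to 0.79 nM) to medium-adapted leukemia cells in 1536-well plates holding 500 or 1000 cells/well. Luminescence from CellTiter-Glo One was normalised plate by plate against DMSO and cell-free wells. Area under the curve came from trapezoidal integration of a log-logistic fit, after scaling curves that rose above full viability and discarding those that failed quality control. The fit had four parameters and used log10 doses.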

SEM cells [5] = experiment: as above
Procedure, shortened: as §2

P12-Ichikawa [6] = experiment: as above
Procedure, shortened: as §2

CO[C@@H]1COCC[C@@H]1N[C@@H]1CC[C@@](C(=O)N2CCc3ncc(C(F)(F)F)cc3C2)(C(C)C)C1
cell viability [%], HPLM + 10% dialyzed FBS
Conditions	NOMO1 [1]	P12-Ichikawa [2]	SEM cells [3]
0.000781 µM	107	98	97.1
0.00234 µM	133	109	107
0.00702 µM	121	123	110
0.0211 µM	142	119	112
0.0632 µM	157	113	111
0.19 µM	141	119	113
0.569 µM	132	118	114
1.71 µM	127	126	102
5.12 µM	143	127	119
15.4 µM	151	123	103
46.1 µM	96.6	47.4	68.1

AUC of viability dose-response curve
Conditions	HPLM + 10% dialyzed FBS	RPMI 5 mM glucose + 10% FBS	RPMI 5 mM glucose + 10% dialyzed FBS
NOMO1 [4]	472	466	472
SEM cells [5]	466	458	467

Cc1ccc([S+](=O)([O-])N[C@@H](Cc2ccccc2)C(=O)CCl)cc1
cell viability [%]
Conditions	NOMO1 [1]	P12-Ichikawa [2]	SEM cells [3]
HPLM + 10% dialyzed FBS, 0.000781 µM	90.2	95	91
HPLM + 10% dialyzed FBS, 0.00234 µM	100	106	58.6
HPLM + 10% dialyzed FBS, 0.00702 µM	119	101	93.2
HPLM + 10% dialyzed FBS, 0.0211 µM	119	101	93.3
HPLM + 10% dialyzed FBS, 0.0632 µM	87.3	105	93
HPLM + 10% dialyzed FBS, 0.19 µM	112	107	105
HPLM + 10% dialyzed FBS, 0.569 µM	99.1	105	96.4
HPLM + 10% dialyzed FBS, 1.71 µM	107	106	109
HPLM + 10% dialyzed FBS, 5.12 µM	106	104	103
HPLM + 10% dialyzed FBS, 15.4 µM	101	94.4	85.5
HPLM + 10% dialyzed FBS, 46.1 µM	47.6	46.4	25.3
RPMI 5 mM glucose + 10% FBS, 0.000781 µM	91.8	90.8	87.4
RPMI 5 mM glucose + 10% FBS, 0.00234 µM	89.4	92.4	53.1
RPMI 5 mM glucose + 10% FBS, 0.00702 µM	96	95.7	94
RPMI 5 mM glucose + 10% FBS, 0.0211 µM	96.9	104	97
RPMI 5 mM glucose + 10% FBS, 0.0632 µM	97.9	113	95.8
RPMI 5 mM glucose + 10% FBS, 0.19 µM	91.4	107	114
RPMI 5 mM glucose + 10% FBS, 0.569 µM	90.3	88.7	95.6
RPMI 5 mM glucose + 10% FBS, 1.71 µM	81	105	108
RPMI 5 mM glucose + 10% FBS, 5.12 µM	95.1	109	104
RPMI 5 mM glucose + 10% FBS, 15.4 µM	90.7	96.2	87
RPMI 5 mM glucose + 10% FBS, 46.1 µM	71.1	36	22.1
RPMI 5 mM glucose + 10% dialyzed FBS, 0.000781 µM	88.8	93.9	80.5
RPMI 5 mM glucose + 10% dialyzed FBS, 0.00234 µM	99.6	92.6	49.8
RPMI 5 mM glucose + 10% dialyzed FBS, 0.00702 µM	94.6	97.2	100
RPMI 5 mM glucose + 10% dialyzed FBS, 0.0211 µM	94.6	102	104
RPMI 5 mM glucose + 10% dialyzed FBS, 0.0632 µM	100	95.1	88.6
RPMI 5 mM glucose + 10% dialyzed FBS, 0.19 µM	85.2	91.3	95.4
RPMI 5 mM glucose + 10% dialyzed FBS, 0.569 µM	99.4	93.2	93.6
RPMI 5 mM glucose + 10% dialyzed FBS, 1.71 µM	108	94.7	107
RPMI 5 mM glucose + 10% dialyzed FBS, 5.12 µM	97.7	106	100
RPMI 5 mM glucose + 10% dialyzed FBS, 15.4 µM	85.1	105	94.3
RPMI 5 mM glucose + 10% dialyzed FBS, 46.1 µM	73.6	36.9	23.4

AUC of viability dose-response curve
Conditions	HPLM + 10% dialyzed FBS	RPMI 5 mM glucose + 10% FBS	RPMI 5 mM glucose + 10% dialyzed FBS
NOMO1 [4]	463	434	450
SEM cells [5]	427	429	420

C=CC[C@@H]1/C=C(\C)C[C@H](C)C[C@H](OC)[C@H]2O[C@@](O)(C(=O)C(=O)N3CCCC[C@H]3C(=O)O[C@H](/C(C)=C/[C@@H]3CC[C@@H](O)[C@H](OC)C3)[C@H](C)[C@@H](O)CC1=O)[C@H](C)C[C@@H]2OC
SEM cells [3], HPLM + 10% dialyzed FBS
Conditions	cell viability [%]
0.000781 µM	102
0.00234 µM	125
0.00702 µM	131
0.0211 µM	123
0.0632 µM	115
0.19 µM	111
0.569 µM	107
1.71 µM	74.9
5.12 µM	60.9
15.4 µM	30.8
46.1 µM	100

AUC of viability dose-response curve
Conditions	NOMO1 [4]	P12-Ichikawa [6]	SEM cells [5]
HPLM + 10% dialyzed FBS	412	466	400
RPMI 5 mM glucose + 10% FBS	453	448	376
RPMI 5 mM glucose + 10% dialyzed FBS	436	449	362

CN1CCN(CC1)C2=C3OCN(C)N4\C=C(C(O)=O)/C(=O)C(=C34)C=C2F
SEM cells [3], HPLM + 10% dialyzed FBS
Conditions	cell viability [%]
0.000781 µM	66.2
0.00234 µM	116
0.00702 µM	120
0.0211 µM	124
0.0632 µM	115
0.19 µM	115
0.569 µM	117
1.71 µM	116
5.12 µM	102
15.4 µM	105
46.1 µM	82

AUC of viability dose-response curve
Conditions	NOMO1 [4]	P12-Ichikawa [6]	SEM cells [5]
HPLM + 10% dialyzed FBS	454	459	471
RPMI 5 mM glucose + 10% FBS	450	459	466
RPMI 5 mM glucose + 10% dialyzed FBS	465	465	434

O=[S+]([O-])(CC1CS1)c1ccc(Oc2ccccc2)cc1 (stereo not drawn)
AUC of viability dose-response curve
Conditions	NOMO1 [4]	P12-Ichikawa [6]	SEM cells [5]
HPLM + 10% dialyzed FBS	448	462	451
RPMI 5 mM glucose + 10% FBS	461	445	437
RPMI 5 mM glucose + 10% dialyzed FBS	435	447	450

CO[C@H]1/C=C\C=C(\C)C(=O)NC2=CC(=O)C(NCCN(C)C)=C(C[C@@H](C)C[C@H](OC)[C@H](O)[C@@H](C)/C=C(/C)[C@@H]1OC(N)=O)C2=O
SEM cells [3], HPLM + 10% dialyzed FBS
Conditions	cell viability [%]
0.000781 µM	108
0.00234 µM	124
0.00702 µM	118
0.0211 µM	120
0.0632 µM	122
0.19 µM	60.8
0.569 µM	31.6
1.71 µM	25.3
5.12 µM	25.5
15.4 µM	23
46.1 µM	6.44

AUC of viability dose-response curve
Conditions	NOMO1 [4]	P12-Ichikawa [6]	SEM cells [5]
HPLM + 10% dialyzed FBS	305	362	279
RPMI 5 mM glucose + 10% FBS	308	328	274
RPMI 5 mM glucose + 10% dialyzed FBS	309	333	268

— the supplement of paper PMC11451515
